In patent publication US20080200404A1, “Novel Antimalarial 9A-Carbamoyl-Aminoalkyl and 9A-Thiocarbamoyl-Aminoalkyl Azalides” (priority 2005, published 2008):
Values after ≈ are worked out from the molar mass of the structure shown. Where two headings read alike, the source gives them in different places. Each block holds one compound with its values, some of them ahead of it.

Key:
Type in all cases: cell-based
[1] = system: Plasmodium falciparum clone CDC/Sierra Leone I (D-6); test: In vitro antimalarial [3H]-hypoxanthine incorporation serial dilution assay, D6; conditions: P. falciparum D6, 72 hours exposure; for IC50: Plasmodium falciparum, D6, 72 h
From the text: (§1) The in vitro screens for intrinsic antimalarial activity were based on modifications of the procedures described by Desjardins R E, Canfield C J, Haynes J D, Chulay J D. (Quantitative assessment of antimalarial activity in vitro by a semiautomated microdilution technique. Antimicrob Agents Chemother. 1979 December; 16(6):710-8.), Chulay J D, Haynes J D, Diggs C L. (Plasmodium falciparum: Assessment of in vitro growth by [3H]hypoxanthine incorporation. Exp. Parasitol. 1983 55:138-146.), and Milhous W K, Weatherly N F, Bowdre J H, Desjardins R E. (In vitro activities of and mechanisms of resistance to antifol antimalarial drugs. Antimicrob Agents Chemother. 1985 April; 27(4):525-30.). The system was limited to the assessment of the intrinsic activity against the erythrocytic asexual life cycle (blood schizontocides). Two Plasmodium falciparum clones from CDC/Indochina III (W-2) and CDC/Sierra Leone I (D-6) (Oduola A M, Weatherly N F, Bowdre J H, Desjardins R E. Plasmodium falciparum: cloning by single-erythrocyte micromanipulation and heterogeneity in vitro. Exp Parasitol. 1988 66(1):86-95.) were used for all assays. TM91C235, a multiple drug resistant isolate from Thailand, was used for the prescreening assay. W-2 is resistant to chloroquine, quinine, and pyrimethamine and susceptible to mefloquine. D-6 tends to be more resistant to mefloquine and susceptible to chloroquine, quinine, and pyrimethamine. All documents cited in this paragraph are incorporated by reference in their entirety.
(§2) All parasites were maintained in continuous long term cultures in RPMI-1640 medium supplemented with 6% washed human A positive (A+)(erythrocytes, 25 mM Hepes, […], and 10% heat inactivated A+human plasma or ALBUMAX® (lipid-rich bovine serum albumin; Invitrogen, Carlsbad, Calif.). All cultures and assays were conducted at 37° C. under an atmosphere of 5% CO2 and 5% O2, with a balance of N2.
(§3) After the preincubation, [^3H]-hypoxanthine was added to each well of the MTP. (The assay relies on the incorporation of radiolabeled hypoxanthine by the parasites, which indicates reproduction, and inhibition of isotope incorporation was attributed to activity of known or candidate antimalarial drugs). After 72 hr of total incubation time, the MTP were frozen to lyse the erythrocytes and parasites. The parasite DNA was recovered by harvesting the lysate onto glass-fiber filter plates using a Packard FilterMate™ Cell Harvester. The radioactivity was counted on a Packard TopCount™ microplate scintillation counter. The results were recorded as counts per minutes (CPM) per well at each drug concentration divided by the arithmetic mean of the CPM from the three untreated infection parasite control wells.
(§4) The serial dilution assay was conducted using the same assay conditions and stock solution of the compound used for the preliminary screen, described above. Both the D-6 and the W-2 clones were used. The compounds were diluted two-fold over 11 different concentration ranges with a starting concentration that was based on the preliminary screen. For each drug, the concentration response profile was determined and 50% inhibitory concentrations (IC50) were determined by using a non-linear, logistic dose response analysis program. […] For each assay, the IC50 for each clone was determined against the known antimalarials chloroquine and mefloquine. These control values established the compound's relative parasite susceptibility profile compared to known antimalarials. […]
(§5) The in vitro potency of the compounds has been compared with that of azithromycin to better gauge compounds suitable for further testing. As described above, parasites were exposed for 72 hours. Data from the in vitro potency tests of azithromycin against the three parasite strains have been averaged, and these numbers have been used for identification of “active” macrolide compounds.

[2] = system: Plasmodium falciparum clone CDC/Indochina III (W-2); test: In vitro antimalarial [3H]-hypoxanthine incorporation serial dilution assay, W2; conditions: P. falciparum W2, 72 hours exposure; for IC50: Plasmodium falciparum
From the text: as §1, §2, §3, §4, §5

[3] = system: Plasmodium falciparum TM91C235; test: In vitro antimalarial [3H]-hypoxanthine incorporation assay, TM91C235; conditions: P. falciparum TM91C235 (multiple drug resistant isolate), 72 hours exposure; for IC50: Plasmodium falciparum
From the text: as §1, §2
The prescreening assay uses TM91C235 diluted at a 0.4% parasitemia in a 1% hematocrit in folic acid free and p-aminobenzoic acid free media RPMI-1640 and ALBUMAX®. One mg of the compound is typically dissolved in 100 μl of dimethyl sulfoxide (DMSO). The compound is further diluted in culture medium (FF) with ALBUMAX® for the first initial starting concentration. The rest of the stock drug solution was kept at −70° C. The isolate was preexposed, in duplicate, at three concentrations (25,000 ng/ml, 2,500 ng/ml, and 25 ng/ml) of the test compound for 48 hr in a 96-well microtiter plate (MTP) using the BIOMEK® 2000 automated laboratory workstation. Each MTP contains chloroquine as control to assess the relative activity of the compound and to monitor the response of TM91C235.
as §3
The serial dilution assay was conducted using the same assay conditions and stock solution of the compound used for the preliminary screen, described above. Both the D-6 and the W-2 clones were used. The compounds were diluted two-fold over 11 different concentration ranges with a starting concentration that was based on the preliminary screen. […]

[4] = compared with azithromycin, read-out: IC50 D6 (class symbol)

Structure (SMILES): CC[C@H]1OC(=O)[C@H](C)[C@@H](O[C@H]2C[C@@](C)(OC)[C@@H](O)[C@H](C)O2)[C@H](C)[C@@H](O[C@@H]2O[C@H](C)C[C@H](N(C)C)[C@H]2O)[C@](C)(O)C[C@@H](C)CN(CCCNC(=O)Nc2ccc3c(c2)OCCCO3)[C@H](C)[C@@H](O)[C@]1(C)O.O=CO [Example 84]
IC50 ([1]; read-out: IC50 D6): 0.0289 µg/mL
IC50 [2]: 0.042 µg/mL
IC50 [3]: 0.0618 µg/mL

Structure (SMILES): CC[C@H]1OC(=O)[C@H](C)[C@@H](O[C@H]2C[C@@](C)(OC)[C@@H](O)[C@H](C)O2)[C@H](C)[C@@H](O[C@@H]2O[C@H](C)C[C@H](N(C)C)[C@H]2O)[C@](C)(O)C[C@@H](C)CN(CCCN(CCC(N)=O)C(=O)Nc2ccc(Cl)cc2Cl)[C@H](C)[C@@H](O)[C@]1(C)O [Example 169, 9-Deoxo-9-dihydro-9a-[N′-(β-amidoethyl)-N′-(2,4-dichlorophenyl)carbamoyl-γ-aminopropyl]-9a-aza-9a-homoerythromycin A]
IC50 D6 [1]: 0.2266 µg/mL (≈ 0.216 µM)
IC50 W2 [2]: 0.188 µg/mL (≈ 0.179 µM)
IC50 TM91C235 [3]: 0.1475 µg/mL (≈ 0.14 µM)

Structure (SMILES): CC[C@H]1OC(=O)[C@H](C)[C@@H](O[C@H]2C[C@@](C)(OC)[C@@H](O)[C@H](C)O2)[C@H](C)[C@@H](O[C@@H]2O[C@H](C)C[C@H](N(C)C)[C@H]2O)[C@](C)(O)C[C@@H](C)CN(CCCNC(=S)NCCCSC)[C@H](C)[C@@H](O)[C@]1(C)O [Example 109]
IC50 ([1]; read-out: IC50 D6): 0.843 µg/mL (≈ 0.898 µM)
IC50 [2]: 0.19 µg/mL (≈ 0.202 µM)
IC50 [3]: 0.332 µg/mL (≈ 0.354 µM)

Structure (SMILES): CC[C@H]1OC(=O)[C@H](C)[C@@H](O[C@H]2C[C@@](C)(OC)[C@@H](O)[C@H](C)O2)[C@H](C)[C@@H](O[C@@H]2O[C@H](C)C[C@H](N(C)C)[C@H]2O)[C@](C)(O)C[C@@H](C)CN(CCCNC(=O)NC2CCCC2)[C@H](C)[C@@H](O)[C@]1(C)O [Example 56]
IC50 [1, 4]: > 0.797 µg/mL
IC50 [2]: 0.251 µg/mL (≈ 0.277 µM)
IC50 [3]: 0.556 µg/mL (≈ 0.616 µM)

Structure (SMILES): CC[C@H]1OC(=O)[C@H](C)[C@@H](O[C@H]2C[C@@](C)(OC)[C@@H](O)[C@H](C)O2)[C@H](C)[C@@H](O[C@@H]2O[C@H](C)C[C@H](N(C)C)[C@H]2O)[C@](C)(O)C[C@@H](C)CN(CCNC(=O)NC(C)C)[C@H](C)[C@@H](O)[C@]1(C)O [Example 1, 9-Deoxo-9-dihydro-9a-(N′-isopropylcarbamoyl-β-aminoethyl)-9a-aza-9a-homoerythromycin A]
IC50 W2 [2]: 1.777 µg/mL (≈ 2.06 µM)
IC50 TM91C235 [3]: 0.6191 µg/mL (≈ 0.717 µM)

Structure (SMILES): CCOC(=O)CCN(CCCN1C[C@H](C)C[C@@](C)(O)[C@H](O[C@@H]2O[C@H](C)C[C@H](N(C)C)[C@H]2O)[C@@H](C)[C@H](O[C@H]2C[C@@](C)(OC)[C@@H](O)[C@H](C)O2)[C@@H](C)C(=O)O[C@H](CC)[C@@](C)(O)[C@H](O)[C@H]1C)C(=S)NCCc1ccccc1 [Example 160, 9-Deoxo-9-dihydro-9a-{N′-[β-(ethoxycarbonyl)ethyl]-N′-[β-(phenylethyl)thiocarbamoyl]-γ-aminopropyl}-9a-aza-9a-homoerythromycin A]
IC50 ([1]; read-out: IC50 D6): 0.153 µg/mL (≈ 0.145 µM)
IC50 [3]: 0.0683 µg/mL (≈ 0.0647 µM)

Results, then the compound that gave them:

IC50 [1, 4]: > 0.797 µg/mL
IC50 [2]: 0.263 µg/mL (≈ 0.287 µM)
IC50 [3]: 0.454 µg/mL (≈ 0.496 µM)
Structure (SMILES): CC[C@H]1OC(=O)[C@H](C)[C@@H](O[C@H]2C[C@@](C)(OC)[C@@H](O)[C@H](C)O2)[C@H](C)[C@@H](O[C@@H]2O[C@H](C)C[C@H](N(C)C)[C@H]2O)[C@](C)(O)C[C@@H](C)CN(CCCNC(=O)NCc2ccco2)[C@H](C)[C@@H](O)[C@]1(C)O [Example 57]

IC50 D6 [1]: 0.0713 µg/mL (≈ 0.0753 µM)
IC50 W2 [2]: 0.0432 µg/mL (≈ 0.0456 µM)
IC50 TM91C235 [3]: 0.0289 µg/mL (≈ 0.0305 µM)
Structure (SMILES): CCC1OC(=O)C(C)C(OC2CC(C)(OC)C(O)C(C)O2)C(C)C(OC2OC(C)CC(N(C)C)C2O)C(C)(O)CC(C)CN(CCNC(=O)Nc2ccc3ccccc3c2)C(C)C(O)C1(C)O (stereo not drawn) [Example 12, 9-Deoxo-9-dihydro-9a-[N′-(2-naphtyl)carbamoyl-β-aminoethyl]-9a-aza-9a-homoerythromycin A]

IC50 ([1]; read-out: IC50 D6): 0.262 µg/mL
IC50 [2]: 0.209 µg/mL
IC50 [3]: 0.142 µg/mL
Structure (SMILES): CC[C@H]1OC(=O)[C@H](C)[C@@H](O[C@H]2C[C@@](C)(OC)[C@@H](O)[C@H](C)O2)[C@H](C)[C@@H](O[C@@H]2O[C@H](C)C[C@H](N(C)C)[C@H]2O)[C@](C)(O)C[C@@H](C)CN(CCCNC(=O)Nc2ccccc2-c2ccccc2)[C@H](C)[C@@H](O)[C@]1(C)O.O=CO [Example 85]

IC50 ([1]; read-out: IC50 D6): 0.451 µg/mL
IC50 [2]: 0.186 µg/mL
IC50 [3]: 0.117 µg/mL
Structure (SMILES): CC[C@H]1OC(=O)[C@H](C)[C@@H](O[C@H]2C[C@@](C)(OC)[C@@H](O)[C@H](C)O2)[C@H](C)[C@@H](O[C@@H]2O[C@H](C)C[C@H](N(C)C)[C@H]2O)[C@](C)(O)C[C@@H](C)CN(CCCNC(=O)Nc2cccc(Cl)c2)[C@H](C)[C@@H](O)[C@]1(C)O.O=CO [Example 80]

IC50 ([1]; read-out: IC50 D6): 0.799 µg/mL
IC50 [2]: 0.714 µg/mL
IC50 [3]: 0.312 µg/mL
Structure (SMILES): CC[C@H]1OC(=O)[C@H](C)[C@@H](O[C@H]2C[C@@](C)(OC)[C@@H](O)[C@H](C)O2)[C@H](C)[C@@H](O[C@@H]2O[C@H](C)C[C@H](N(C)C)[C@H]2O)[C@](C)(O)C[C@@H](C)CN(CCCNC(=S)Nc2ccc(N(CC)CC)cc2)[C@H](C)[C@@H](O)[C@]1(C)O.O=CO [Example 121]

IC50 ([1]; read-out: IC50 D6): 0.322 µg/mL
IC50 [2]: 0.439 µg/mL
IC50 [3]: 0.234 µg/mL
Structure (SMILES): CC[C@H]1OC(=O)[C@H](C)[C@@H](O[C@H]2C[C@@](C)(OC)[C@@H](O)[C@H](C)O2)[C@H](C)[C@@H](O[C@@H]2O[C@H](C)C[C@H](N(C)C)[C@H]2O)[C@](C)(O)C[C@@H](C)CN(CCCNC(=S)NCc2ccco2)[C@H](C)[C@@H](O)[C@]1(C)O.O=CO [Example 143]

IC50 ([1]; read-out: IC50 D6): 0.23 µg/mL
IC50 [2]: 0.117 µg/mL
IC50 [3]: 0.142 µg/mL
Structure (SMILES): CC[C@H]1OC(=O)[C@H](C)[C@@H](O[C@H]2C[C@@](C)(OC)[C@@H](O)[C@H](C)O2)[C@H](C)[C@@H](O[C@@H]2O[C@H](C)C[C@H](N(C)C)[C@H]2O)[C@](C)(O)C[C@@H](C)CN(CCCNC(=S)Nc2ccc(Oc3ccccc3)nc2)[C@H](C)[C@@H](O)[C@]1(C)O.O=CO [Example 146]

IC50 ([1]; read-out: IC50 D6): 0.373 µg/mL (≈ 0.389 µM)
IC50 [2]: 0.0502 µg/mL (≈ 0.0523 µM)
IC50 [3]: 0.11 µg/mL (≈ 0.115 µM)
Structure (SMILES): CC[C@H]1OC(=O)[C@H](C)[C@@H](O[C@H]2C[C@@](C)(OC)[C@@H](O)[C@H](C)O2)[C@H](C)[C@@H](O[C@@H]2O[C@H](C)C[C@H](N(C)C)[C@H]2O)[C@](C)(O)C[C@@H](C)CN(CCCNC(=S)Nc2cc(F)ccc2C)[C@H](C)[C@@H](O)[C@]1(C)O [Example 62]

IC50 ([1]; read-out: IC50 D6): 0.111 µg/mL (≈ 0.107 µM)
IC50 [3]: 0.0993 µg/mL (≈ 0.0963 µM)
Structure (SMILES): CC[C@H]1OC(=O)[C@H](C)[C@@H](O[C@H]2C[C@@](C)(OC)[C@@H](O)[C@H](C)O2)[C@H](C)[C@@H](O[C@@H]2O[C@H](C)C[C@H](N(C)C)[C@H]2O)[C@](C)(O)C[C@@H](C)CN(CCCNC(=S)Nc2ccc(/N=N/c3ccccc3)cc2)[C@H](C)[C@@H](O)[C@]1(C)O [Example 118]
